Assay results taken from PubChem BioAssay (NCI).
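All cell lines were grown in 96-well plates and treated with compound for 48 hours. GI50: concentration for 50% inhibition of growth. TGI: total growth inhibition.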

Assays:
Test in all cases: NCI-60 cell line screen, 48 h
786-0 renal = test system: 786-0 renal
A549 NSCLC = test system: A549 NSCLC
ACHN renal = test system: ACHN renal
CAKI-1 renal = test system: CAKI-1 renal
CCRF-CEM leukemia = test system: CCRF-CEM leukemia
COLO 205 colon = test system: COLO 205 colon
DLD-1 colon = test system: DLD-1 colon
DMS 114 small cell lung = test system: DMS 114 small cell lung
DMS 273 small cell lung = test system: DMS 273 small cell lung
EKVX NSCLC = test system: EKVX NSCLC
HCC-2998 colon = test system: HCC-2998 colon
HCT-116 colon = test system: HCT-116 colon
HCT-15 colon = test system: HCT-15 colon
HL-60(TB) leukemia = test system: HL-60(TB) leukemia
HOP-18 NSCLC = test system: HOP-18 NSCLC
HOP-62 NSCLC = test system: HOP-62 NSCLC
HOP-92 NSCLC = test system: HOP-92 NSCLC
HT29 colon = test system: HT29 colon
IGROV1 ovarian = test system: IGROV1 ovarian
K-562 leukemia = test system: K-562 leukemia
KM12 colon = test system: KM12 colon
KM20L2 colon = test system: KM20L2 colon
LOX IMVI melanoma = test system: LOX IMVI melanoma
LXFL 529 NSCLC = test system: LXFL 529 NSCLC
M14 melanoma = test system: M14 melanoma
M19-MEL melanoma = test system: M19-MEL melanoma
MALME-3M melanoma = test system: MALME-3M melanoma
MOLT-4 leukemia = test system: MOLT-4 leukemia
NCI-H226 lung = test system: NCI-H226 lung
NCI-H23 lung = test system: NCI-H23 lung
NCI-H460 lung = test system: NCI-H460 lung
OVCAR-3 ovarian = test system: OVCAR-3 ovarian
OVCAR-4 ovarian = test system: OVCAR-4 ovarian
OVCAR-5 ovarian = test system: OVCAR-5 ovarian
OVCAR-8 ovarian = test system: OVCAR-8 ovarian
RPMI-8226 leukemia = test system: RPMI-8226 leukemia
RXF 393 renal = test system: RXF 393 renal
RXF-631 renal = test system: RXF-631 renal
SF-268 CNS = test system: SF-268 CNS
SF-295 CNS = test system: SF-295 CNS
SF-539 CNS = test system: SF-539 CNS
SK-MEL-2 melanoma = test system: SK-MEL-2 melanoma
SK-MEL-28 melanoma = test system: SK-MEL-28 melanoma
SK-MEL-5 melanoma = test system: SK-MEL-5 melanoma
SK-OV-3 ovarian = test system: SK-OV-3 ovarian
SN12C renal = test system: SN12C renal
SNB-19 CNS = test system: SNB-19 CNS
SNB-75 CNS = test system: SNB-75 CNS
SNB-78 CNS = test system: SNB-78 CNS
SR leukemia = test system: SR leukemia
SW-620 colon = test system: SW-620 colon
TK-10 renal = test system: TK-10 renal
U251 CNS = test system: U251 CNS
UACC-257 melanoma = test system: UACC-257 melanoma
UACC-62 melanoma = test system: UACC-62 melanoma
UO-31 renal = test system: UO-31 renal
XF 498 CNS = test system: XF 498 CNS

Question: How did the GI50 (786-0 renal) turn out when `[F][Sn]([F])([c]1ccccc1)[c]1ccccc1` was run?
Answer: 1570 nM

Question: What about the TGI (786-0 renal) of the same compound?
Answer: 2980 nM

Question: And the GI50 (A549 NSCLC)?
Answer: 2330 nM

Question: And the TGI (A549 NSCLC)?
Answer: 6450 nM

Question: And the GI50 (ACHN renal)?
Answer: 1600 nM

Question: And the TGI (ACHN renal)?
Answer: 2970 nM

Question: What about the GI50 (CAKI-1 renal) of the same compound?
Answer: 1320 nM

Question: What about the TGI (CAKI-1 renal) of the same compound?
Answer: 3220 nM

Question: And the GI50 (CCRF-CEM leukemia)?
Answer: 688 nM

Question: What about the TGI (CCRF-CEM leukemia) of the same compound?
Answer: 3820 nM

Question: And the GI50 (COLO 205 colon)?
Answer: 1810 nM

Question: And the TGI (COLO 205 colon)?
Answer: 3970 nM

Question: What about the GI50 (DLD-1 colon) of the same compound?
Answer: 1880 nM

Question: And the TGI (DLD-1 colon)?
Answer: 3470 nM

Question: And the GI50 (DMS 114 small cell lung)?
Answer: 2000 nM

Question: And the TGI (DMS 114 small cell lung)?
Answer: 5800 nM

Question: And the GI50 (DMS 273 small cell lung)?
Answer: 2170 nM

Question: What about the TGI (DMS 273 small cell lung) of the same compound?
Answer: 5260 nM

Question: And the GI50 (EKVX NSCLC)?
Answer: 1830 nM

Question: And the TGI (EKVX NSCLC)?
Answer: 3960 nM

Question: And the GI50 (HCC-2998 colon)?
Answer: 1630 nM

Question: And the TGI (HCC-2998 colon)?
Answer: 3040 nM

Question: And the GI50 (HCT-116 colon)?
Answer: 1500 nM

Question: What about the TGI (HCT-116 colon) of the same compound?
Answer: 3260 nM

Question: And the GI50 (HCT-15 colon)?
Answer: 1650 nM

Question: And the TGI (HCT-15 colon)?
Answer: 3260 nM

Question: What about the GI50 (HL-60(TB) leukemia) of the same compound?
Answer: 1010 nM

Question: What about the TGI (HL-60(TB) leukemia) of the same compound?
Answer: 3070 nM

Question: And the GI50 (HOP-18 NSCLC)?
Answer: 2080 nM

Question: And the TGI (HOP-18 NSCLC)?
Answer: 3590 nM

Question: And the GI50 (HOP-62 NSCLC)?
Answer: 2320 nM

Question: And the TGI (HOP-62 NSCLC)?
Answer: 4850 nM

Question: And the GI50 (HOP-92 NSCLC)?
Answer: 1480 nM

Question: What about the TGI (HOP-92 NSCLC) of the same compound?
Answer: 3130 nM

Question: What about the GI50 (HT29 colon) of the same compound?
Answer: 1780 nM

Question: And the TGI (HT29 colon)?
Answer: 3850 nM

Question: And the GI50 (IGROV1 ovarian)?
Answer: 1840 nM

Question: What about the TGI (IGROV1 ovarian) of the same compound?
Answer: 4000 nM

Question: What about the GI50 (K-562 leukemia) of the same compound?
Answer: 702 nM

Question: What about the TGI (K-562 leukemia) of the same compound?
Answer: 4960 nM

Question: And the GI50 (KM12 colon)?
Answer: 1700 nM

Question: And the TGI (KM12 colon)?
Answer: 3430 nM

Question: And the GI50 (KM20L2 colon)?
Answer: 1870 nM

Question: What about the TGI (KM20L2 colon) of the same compound?
Answer: 3390 nM

Question: What about the GI50 (LOX IMVI melanoma) of the same compound?
Answer: 1700 nM

Question: And the TGI (LOX IMVI melanoma)?
Answer: 3290 nM

Question: What about the GI50 (LXFL 529 NSCLC) of the same compound?
Answer: 815 nM

Question: What about the TGI (LXFL 529 NSCLC) of the same compound?
Answer: 2080 nM

Question: And the GI50 (M14 melanoma)?
Answer: 2080 nM

Question: What about the TGI (M14 melanoma) of the same compound?
Answer: 4450 nM

Question: And the GI50 (M19-MEL melanoma)?
Answer: 2350 nM

Question: What about the TGI (M19-MEL melanoma) of the same compound?
Answer: 6200 nM

Question: What about the GI50 (MALME-3M melanoma) of the same compound?
Answer: 1800 nM

Question: And the TGI (MALME-3M melanoma)?
Answer: 3330 nM

Question: What about the GI50 (MOLT-4 leukemia) of the same compound?
Answer: 1170 nM

Question: What about the TGI (MOLT-4 leukemia) of the same compound?
Answer: 5220 nM

Question: And the GI50 (NCI-H226 lung)?
Answer: 2110 nM

Question: What about the TGI (NCI-H226 lung) of the same compound?
Answer: 4260 nM

Question: And the GI50 (NCI-H23 lung)?
Answer: 1850 nM

Question: And the TGI (NCI-H23 lung)?
Answer: 3700 nM

Question: What about the GI50 (NCI-H460 lung) of the same compound?
Answer: 2270 nM

Question: What about the TGI (NCI-H460 lung) of the same compound?
Answer: 4970 nM

Question: What about the GI50 (OVCAR-3 ovarian) of the same compound?
Answer: 1590 nM

Question: What about the TGI (OVCAR-3 ovarian) of the same compound?
Answer: 3000 nM

Question: What about the GI50 (OVCAR-4 ovarian) of the same compound?
Answer: 1680 nM

Question: And the TGI (OVCAR-4 ovarian)?
Answer: 3390 nM

Question: What about the GI50 (OVCAR-5 ovarian) of the same compound?
Answer: 1510 nM

Question: What about the TGI (OVCAR-5 ovarian) of the same compound?
Answer: 3690 nM

Question: What about the GI50 (OVCAR-8 ovarian) of the same compound?
Answer: 2050 nM

Question: What about the TGI (OVCAR-8 ovarian) of the same compound?
Answer: 4880 nM

Question: What about the GI50 (RPMI-8226 leukemia) of the same compound?
Answer: 1110 nM

Question: And the TGI (RPMI-8226 leukemia)?
Answer: 3790 nM

Question: What about the GI50 (RXF 393 renal) of the same compound?
Answer: 887 nM

Question: What about the TGI (RXF 393 renal) of the same compound?
Answer: 2640 nM

Question: And the GI50 (RXF-631 renal)?
Answer: 2300 nM

Question: What about the TGI (RXF-631 renal) of the same compound?
Answer: 6010 nM

Question: And the GI50 (SF-268 CNS)?
Answer: 1840 nM

Question: What about the TGI (SF-268 CNS) of the same compound?
Answer: 3780 nM

Question: What about the GI50 (SF-295 CNS) of the same compound?
Answer: 1990 nM

Question: And the TGI (SF-295 CNS)?
Answer: 3850 nM

Question: What about the GI50 (SF-539 CNS) of the same compound?
Answer: 2130 nM

Question: And the TGI (SF-539 CNS)?
Answer: 4090 nM

Question: And the GI50 (SK-MEL-2 melanoma)?
Answer: 1910 nM

Question: And the TGI (SK-MEL-2 melanoma)?
Answer: 3430 nM

Question: What about the GI50 (SK-MEL-28 melanoma) of the same compound?
Answer: 1960 nM

Question: And the TGI (SK-MEL-28 melanoma)?
Answer: 3750 nM

Question: And the GI50 (SK-MEL-5 melanoma)?
Answer: 1780 nM

Question: What about the TGI (SK-MEL-5 melanoma) of the same compound?
Answer: 3310 nM

Question: And the GI50 (SK-OV-3 ovarian)?
Answer: 2310 nM

Question: And the TGI (SK-OV-3 ovarian)?
Answer: 7490 nM

Question: What about the GI50 (SN12C renal) of the same compound?
Answer: 1680 nM

Question: What about the TGI (SN12C renal) of the same compound?
Answer: 3180 nM

Question: And the GI50 (SNB-19 CNS)?
Answer: 2250 nM

Question: What about the TGI (SNB-19 CNS) of the same compound?
Answer: 5580 nM

Question: What about the GI50 (SNB-75 CNS) of the same compound?
Answer: 1700 nM

Question: What about the TGI (SNB-75 CNS) of the same compound?
Answer: 4610 nM

Question: And the GI50 (SNB-78 CNS)?
Answer: 3180 nM

Question: What about the TGI (SNB-78 CNS) of the same compound?
Answer: 16000 nM

Question: What about the GI50 (SR leukemia) of the same compound?
Answer: 1180 nM

Question: And the TGI (SR leukemia)?
Answer: 3810 nM

Question: And the GI50 (SW-620 colon)?
Answer: 1360 nM

Question: And the TGI (SW-620 colon)?
Answer: 3020 nM

Question: What about the GI50 (TK-10 renal) of the same compound?
Answer: 1890 nM

Question: And the TGI (TK-10 renal)?
Answer: 3440 nM

Question: What about the GI50 (U251 CNS) of the same compound?
Answer: 1630 nM

Question: And the TGI (U251 CNS)?
Answer: 3050 nM

Question: And the GI50 (UACC-257 melanoma)?
Answer: 1560 nM

Question: And the TGI (UACC-257 melanoma)?
Answer: 3200 nM

Question: And the GI50 (UACC-62 melanoma)?
Answer: 1770 nM

Question: And the TGI (UACC-62 melanoma)?
Answer: 5150 nM

Question: And the GI50 (UO-31 renal)?
Answer: 1920 nM

Question: And the TGI (UO-31 renal)?
Answer: 3340 nM

Question: What about the GI50 (XF 498 CNS) of the same compound?
Answer: 1990 nM

Question: And the TGI (XF 498 CNS)?
Answer: 3450 nM
